Assay results from ChEMBL document CHEMBL4004795, “Polycycloiridals with a Cyclopentane Ring from Iris tectorum” (J Nat Prod, 2017).

Key:
BV-2 [1] = assay: Inhibition of LPS-induced nitric oxide production in mouse BV2 cells pretreated for 24 hrs followed by LPS-stimulation after 24 hrs by Griess assay; assay type: functional, cell-based
BV-2 [2] = assay: Potency index, ratio of curcumin IC50 to compound IC50 for inhibition of LPS-induced nitric oxide production in mouse BV2 cells; assay type: functional

| Structure (SMILES) | IC50 (BV-2 [1]) [µM] | Ratio IC50 (BV-2 [2]) |
| --- | --- | --- |
| C=C(C)[C@@H]1CC[C@](C)(O)[C@H]1/C=C/C(C)=C/[C@H]1C[C@@]23[C@H](OCCC[C@@H]2/C(=C(/C)C=O)CC[C@]3(C)O)O1 | > 10 | – |
| COc1cc(/C=C/C(=O)CC(=O)/C=C/c2ccc(O)c(OC)c2)ccc1O [CURCUMIN] | 2.36 | – |
| CC(/C=C/[C@@H]1[C@@H](C(C)(C)O)CC[C@@]1(C)O)=C\[C@H]1C[C@@]23[C@H](OCCC[C@@H]2/C(=C(\C)C=O)CC[C@]3(C)O)O1 | > 10 | – |
| CC(C)=CCC/C(C)=C\[C@H]1C=C(CO)[C@@H]2CC[C@]3([C@H](CCCO)/C(=C(/C)C=O)CC[C@]3(C)O)[C@@H]2O1 | 0.54 | 3 |
| CC(/C=C/[C@H]1[C@H](C(C)(C)O)CC[C@]1(C)O)=C\[C@H]1C[C@@]23[C@H](OCCC[C@@H]2/C(=C(\C)C=O)CC[C@]3(C)O)O1 | > 10 | – |
| C=C(C)[C@H]1CC[C@@](C)(O)[C@@H]1/C=C/C(C)=C/[C@H]1C[C@@]23[C@H](OCCC[C@@H]2/C(=C(/C)C=O)CC[C@]3(C)O)O1 | > 10 | – |
| C=C(C)[C@H]1CC[C@@](C)(O)[C@@H]1/C=C/C(C)=C/[C@H]1C[C@@]23[C@H](OCCC[C@@H]2/C(=C(\C)C=O)CC[C@]3(C)O)O1 | > 10 | – |
| C/C(C=O)=C1\CC[C@](C)(O)[C@]23C[C@H](/C=C(C)/C=C/[C@@H]4[C@@H](C(C)(C)O)CC[C@@]4(C)O)O[C@H]2OCCC[C@H]13 | > 10 | – |
